Data: patent US9193731B2, “Antimicrobial compounds and methods of making and using the same” (Melinta Therapeutics, Inc., priority 2009, dated 2015)

tested on: Escherichia coli strain ATCC25922; assay: standard microdilution assay to determine minimum inhibitory concentrations (MICs); type: cell-based; details: Escherichia coli strain ATCC25922, microdilution
Outline: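 Broth microdilution MIC against E. coli ATCC25922, following CLSI protocols, typically in a 100 microliter final volume. Results reported as +/− relative to a 16 micrograms/ml cutoff.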

SMILES	E. coli ATCC25922 MIC
N=C(N)NCCCNCc1ccc(-n2cc3cc(-c4cccc(OCC(F)(F)CN)c4)[nH]c3nc2=O)cc1 [Compound 1404]	− (a “−” indicates that the compound has an MIC value greater than 16 micrograms/ml)
CC(CCN)Oc1cccc(-c2cc3cn(-c4ccc(CNCCCNC(=N)N)cc4)c(=O)nc3[nH]2)c1 (stereo not shown) [Compound 1414]	+ (a “+” indicates that the compound has an MIC value of 16 micrograms/ml or less)
N=C(N)NCCCN1CC=C(n2cc3cc(-c4ccc(S(=O)(=O)N(CC5COc6ccccc6O5)C5CCNCC5)cc4)[nH]c3nc2=O)CC1 (stereo not shown) [Compound 984]	+ (a “+” indicates that the compound has an MIC value of 16 micrograms/ml or less)
N=C(N)NCCCNCC(Cn1cc2cc(-c3ccc(S(=O)(=O)NC4CCNCC4)cc3)[nH]c2nc1=O)OCc1ccc(F)c(F)c1 (stereo not shown) [Compound 1089]	− (a “−” indicates that the compound has an MIC value greater than 16 micrograms/ml)
N=C(N)NCCCNCc1ccc(-n2cc3cc(-c4cc(CO)cc(CCCCN)c4)[nH]c3nc2=O)cc1 [Compound 2065a]	+ (a “+” indicates that the compound has an MIC value of 16 micrograms/ml or less)
N=C(N)NCCCNCc1ccc(-n2cc3cc(C4CCCN(CCOCCO)C4)[nH]c3nc2=O)cc1 (stereo not shown) [Compound 2043a]	+ (a “+” indicates that the compound has an MIC value of 16 micrograms/ml or less)
N=C(N)NCCCNCC(Cn1cc2cc(-c3ccc(S(=O)(=O)NC4CCNCC4)cc3)[nH]c2nc1=O)OCc1ccc(F)cc1 (stereo not shown) [Compound 1097]	− (a “−” indicates that the compound has an MIC value greater than 16 micrograms/ml)
N=C(N)NCCCNC(=O)c1ccc(-n2cc3cc(-c4ccc(S(=O)(=O)NC5CCNCC5)cc4)[nH]c3nc2=O)cc1 [Compound 893]	+ (a “+” indicates that the compound has an MIC value of 16 micrograms/ml or less)
N=C(N)NCCCNC(c1ccc(-n2cc3cc(-c4cc(CCCCN)cc(OC(F)(F)F)c4)[nH]c3nc2=O)cc1)C(F)(F)F (stereo not shown) [Compound 2081a]	+ (a “+” indicates that the compound has an MIC value of 16 micrograms/ml or less)
N=C(N)NCCCNCc1ccc(-n2cc3cc(-c4cc(C(=O)N5CCc6ccccc6C5)cc(N5CCNCC5)c4)[nH]c3nc2=O)cc1 [Compound 1009]	+ (a “+” indicates that the compound has an MIC value of 16 micrograms/ml or less)
CC1CN(C(=O)c2ccc(-c3cn4cc(-c5ccc(CNCCCNC(=N)N)cc5)c(=O)nc4[nH]3)cc2)CCN1 (stereo not shown) [Compound 822]	+ (a “+” indicates that the compound has an MIC value of 16 micrograms/ml or less)
N=C(N)NCCCNCc1ccc(-n2cc3cc(-c4cccc(S(=O)(=O)CCCN)c4)[nH]c3nc2=O)cc1 [Compound 1460]	+ (a “+” indicates that the compound has an MIC value of 16 micrograms/ml or less)
N=C(N)N[C@@H]1CCN(Cc2ccc(-n3cc4cc(-c5ccc(S(=O)(=O)N(CCCN6CCS(=O)(=O)CC6)C6CCNCC6)cc5)[nH]c4nc3=O)cc2)C1 [Compound 1222]	− (a “−” indicates that the compound has an MIC value greater than 16 micrograms/ml)
N=C(N)NCCCNCc1ccc(-n2cc3cc(-c4ccc(S(=O)(=O)N(CCC(=O)Nc5ccc([N+](=O)[O-])cc5)C5CCNCC5)cc4)[nH]c3nc2=O)cc1 [Compound 854]	+ (a “+” indicates that the compound has an MIC value of 16 micrograms/ml or less)
N=C(N)NCCCNCc1ccc(-n2cc3cc(-c4ccc(S(=O)(=O)CCCNC5CCNC5)cc4)[nH]c3nc2=O)cc1 (stereo not shown) [Compound 1330]	+ (a “+” indicates that the compound has an MIC value of 16 micrograms/ml or less)
CS(=O)(=O)NCc1cc(CCCCN)cc(-c2cc3cn(-c4ccc(CNCCCNC(=N)N)cc4)c(=O)nc3[nH]2)c1 [Compound 2090a]	+ (a “+” indicates that the compound has an MIC value of 16 micrograms/ml or less)
N=C(N)NCCCNCc1ccc(-n2cc3cc(-c4ccc(S(=O)(=O)N(CC5CN(Cc6ccccc6)CCO5)C5CCNCC5)cc4)[nH]c3nc2=O)cc1 (stereo not shown) [Compound 988]	+ (a “+” indicates that the compound has an MIC value of 16 micrograms/ml or less)
N=C(N)NCC(O)CNCc1ccc(-n2cc3cc(-c4ccc(S(=O)(=O)NC5CN(C(=N)N)C5)cc4)[nH]c3nc2=O)cc1 (stereo not shown) [Compound 1417]	+ (a “+” indicates that the compound has an MIC value of 16 micrograms/ml or less)
NC(N)=NCCCNCc1ccc(-n2cc3cc(-c4cccc(S(=O)(=O)N(CCc5cccc([N+](=O)[O-])c5)C5CCNCC5)c4)[nH]c3nc2=O)cc1 [Compound 1185]	+ (a “+” indicates that the compound has an MIC value of 16 micrograms/ml or less)
N=C(N)NCCCNCc1ccc(-n2cc3cc(-c4cc(OC(F)(F)F)cc(SCCCN)c4)[nH]c3nc2=O)cc1 [Compound 2047a]	+ (a “+” indicates that the compound has an MIC value of 16 micrograms/ml or less)
N=C(N)NCCCNCc1ccc(-n2cc3cc(-c4cccc(C(NC5CN(C(=N)N)C5)C(F)(F)F)c4)[nH]c3nc2=O)cc1 (stereo not shown) [Compound 2024a]	+ (a “+” indicates that the compound has an MIC value of 16 micrograms/ml or less)
N=C(N)NCCCNCc1ccc(-n2cc3cc(-c4cccc(OCC(F)CN)c4)[nH]c3nc2=O)cc1 (stereo not shown) [Compound 1390]	+ (a “+” indicates that the compound has an MIC value of 16 micrograms/ml or less)
N=C(N)NCCCNCc1ccc(-n2cc3cc(-c4cc(CNc5cc(F)cc(F)c5)cc(N5CCNCC5)c4)[nH]c3nc2=O)cc1 [Compound 1043]	+ (a “+” indicates that the compound has an MIC value of 16 micrograms/ml or less)
N=C(N)NCCCN1CC=C(n2cc3cc(-c4ccc(S(=O)(=O)N(Cc5ccc(Cl)c(Cl)c5)C5CCNCC5)cc4)[nH]c3nc2=O)CC1 [Compound 966]	+ (a “+” indicates that the compound has an MIC value of 16 micrograms/ml or less)
CC(=O)NCCc1cc(OCC(F)CN)cc(-c2cc3cn(-c4ccc(CNCCCNC(=N)N)cc4)c(=O)nc3[nH]2)c1 (stereo not shown) [Compound 2032a]	− (a “−” indicates that the compound has an MIC value greater than 16 micrograms/ml)
N=C(N)NCCCNCc1ccc(-n2cc3cc(-c4cccc(OCC(CN)OCC(F)(F)F)c4)[nH]c3nc2=O)cc1 (stereo not shown) [Compound 1455]	+ (a “+” indicates that the compound has an MIC value of 16 micrograms/ml or less)

same assay, conditions: Escherichia coli, ATCC25922, Escherichia coli strain ATCC25922, microdilution; read-out: E. coli ATCC25922 MIC

MIC [mg/L]	SMILES
> 16	CC(C)ONC(=O)c1ccc(-c2cn3cc(-c4ccc(CNCCCNC(=N)N)cc4)c(=O)nc3[nH]2)cc1 [Compound 737]
> 16	CN(CCCOc1cccc(-c2cc3cn(-c4ccc(CNCCCNC(=N)N)cc4)c(=O)nc3[nH]2)c1)C(=O)c1ccccc1 [Compound 1204]
> 16	Cc1cc(CNc2cn3cc(-c4ccc(CNCCCN)cc4)c(=O)nc3[nH]2)no1 [Compound 679]
> 16	N=C(N)CCCOc1cccc(-c2cc3cn(-c4ccc(CN)cc4)c(=O)nc3[nH]2)c1 [Compound 1150]
> 16	NCCCNCc1ccc(-c2cn3cc(-c4ccc(C(=O)N5CCS(=O)(=O)CC5)cc4)[nH]c3nc2=O)cc1 [Compound 698]
> 16	NCCCNCc1ccc(-n2cc3cc(CN4CCOC4=O)[nH]c3nc2=O)cc1 [Compound 289]
< 16	N=C(N)NCCCNCc1ccc(-n2cc3cc(CCN(C(=O)c4ccccc4)C4CCNCC4)[nH]c3nc2=O)cc1 [Compound 688]
> 16	O=C1CC[C@@H](COc2cccc(-n3cc4cc(-c5ccc(S(=O)(=O)NC6CCNCC6)cc5)[nH]c4nc3=O)c2)N1 [Compound 1223]
> 16	NOCCNC(=O)c1ccc(-n2cc3cc(-c4ccc(S(=O)(=O)NC5CCNCC5)cc4)[nH]c3nc2=O)cc1 [Compound 1136]
< 16	NCCCN(CCCN)Cc1ccc(-n2cc3cc(-c4ccc(S(=O)(=O)N(Cc5ccc(SC(F)(F)F)cc5)C5CCNCC5)cc4)[nH]c3nc2=O)cc1 [Compound 236]
> 16	O=C(NC1CCNCC1)c1ccc(-c2cc3cn(-c4ccc(CNCCCCl)cc4)c(=O)nc3[nH]2)cc1F [Compound 254]
> 16	NCc1ccc(-n2cc3cc(-c4ccc(S(=O)(=O)NC5CCNCC5)c(Cl)c4)[nH]c3nc2=O)cc1 [Compound 245]
> 16	N=C(N)NCCCCCc1ccc(-c2cn3cc(-c4ccc(Br)cc4)[nH]c3nc2=O)cc1 [Compound 885]
< 16	CC(C)(C)c1ccc(-c2cc3cn(-c4ccc(CNCCCN)cc4)c(=O)nc3[nH]2)cc1 [Compound 634]
> 16	NCc1ccc(-n2cc3cc(-c4cccc(S(=O)(=O)N(CCc5ccc(O)cc5)C5CCNCC5)c4)[nH]c3nc2=O)cc1 [Compound 1182]
> 16	NCc1ccc(-n2cc3cc(-c4ccc(S(=O)(=O)N(CCCn5cccn5)C5CCNCC5)cc4)[nH]c3nc2=O)cc1 [Compound 1035]
< 16	N=C(N)NCCCNCc1ccc(-n2cc3cc(C4CN(C(=N)N)CCO4)[nH]c3nc2=O)cc1 (stereo not shown) [Compound 1335]
< 16	N=C(N)CCCN1CCCC(c2cc3cn(-c4ccc(CNCCCNC(=N)N)cc4)c(=O)nc3[nH]2)C1 (stereo not shown) [Compound 2020a]
> 16	CCOCCOc1ccccc1-c1cc2cn(-c3ccc(CN)cc3)c(=O)nc2[nH]1 [Compound 1131]
> 16	CNCc1ccc(-n2cc3cc(-c4ccc(S(=O)(=O)N(CCCN5CCCCC5C)C5CCNCC5)cc4)[nH]c3nc2=O)cc1 (stereo not shown) [Compound 1039]
< 16	NCCCN(CCCN)Cc1ccc(-n2cc3cc(-c4ccc(S(=O)(=O)NC5CCNCC5)cc4)[nH]c3nc2=O)cc1 [Compound 198]
< 16	N=C(N)NCCCNCc1ccc(-c2cn3cc(-c4ccc(C(=O)NC56CC7CC(CC(C7)C5)C6)cc4)[nH]c3nc2=O)cc1 [Compound 724]
> 16	NCCCNCc1ccc(-c2cn3cc(-c4ccc(S(=O)(=O)N5CC[C@@H](F)C5)cc4)[nH]c3nc2=O)cc1 [Compound 743]
> 16	NCCCNCc1ccc(-n2cc3cc(-c4ccc(OC(F)(F)F)cc4)[nH]c3nc2=O)cc1 [Compound 296]
> 16	N=C(N)NCCCNCc1ccc(-n2cc3cc(COc4ccccc4)[nH]c3nc2=O)cc1 [Compound 630]

SMILES	MIC [mg/L]
NCCCN1CC=C(c2cn3c(nc2=O)[nH]c2ccccc23)CC1 [Compound 587]	> 16
